IC50 data for eleven molecules are collected here from patent US6903089B1, “Lactam-substituted pyrazolopyridine derivatives” (Bayer Aktiengesellschaft, priority 2000, dated 2005).

This test deals with rabbit aorta rings. Put plainly: Vasorelaxant effect in vitro (phenylephrine-contracted rabbit aorta rings). As to conditions: Oryctolagus cuniculus, contraction generated by phenylephrine, concentration reducing height of control contraction by 50%. On the procedure: Rabbits are stunned by a blow to the back of the neck and are exsanguinated. The aorta is removed, freed of adherent tissue, divided into rings 1.5 mm wide and put singly under tension in 5 ml organ baths containing carbogen-gassed Krebs-Henseleit solution at 37° C. with the following composition (mM): NaCl: 119; KCl: 4.8; CaCl2×2H2O: 1; MgSO4×7 H2O: 1.4; KH2PO4: 1.2; NaHCO3: 25; glucose: 10. The force of contraction is detected with Statham UC2 cells, amplified and digitized via A/D converters (DAS-1802 HC, Keithley Instruments Munich) and recorded in parallel on chart recorders. A contraction is generated by adding phenylephrine to the bath cumulatively in increasing concentration. After several control cycles, the substance to be investigated is investigated in each further run in increing dosage in each case, and the height of the contraction is compared with the height of the contraction reached in the last preceding run. The concentration necessary to reduce the height of the control value by 50% (IC50) is calculated from this. The standard application volume is 5 μl, and the DMSO content in the bath solution corresponds to 0.1%.

Molecules are shown by their SMILES.

Take `Nc1nc(-c2nn(Cc3ccccc3F)c3ncccc23)ncc1N1CCCC1=O` [Example 2]: inhibition was half-maximal at 1100 nM (IC50). To `Nc1nc(-c2nn(Cc3ccccc3F)c3ncccc23)ncc1N1CCCCC1=O` [Example 3] belongs 1990 nM; to `Nc1nc(-c2nn(Cc3ccccc3F)c3ncccc23)ncc1N1CCCCCC1=O` [Example 5], 1050 nM.

In the case of `CC1(C)CN(c2cnc(-c3nn(Cc4ccccc4F)c4ncccc34)nc2N)C(=O)C1(C)C` [Example 9], the IC50 (as a rule, the concentration needed to halve the response being measured) was 700 nM. To `CC1C(=O)N(c2cnc(-c3nn(Cc4ccccc4F)c4ncccc34)nc2N)C(=O)C1(C)C` (centres unmarked) [Example 13] belongs 690 nM; to `CC1(C)OC(=O)N(c2cnc(-c3nn(Cc4ccccc4F)c4ncccc34)nc2N)C1=O` [Example 14, 3-{4-Amino-2-[1-(2-fluorobenzyl)-1H-pyrazolo[3,4-b]pyridin-3-yl]-5-pyrimidinyl}-5,5-dimethyl-1,3-oxazolidine-2,4-dione], 420 nM.

`Nc1nc(-c2nn(Cc3ccccc3F)c3ncccc23)ncc1N1CCOC1=O` [Example 15] displayed an IC50 of 1200 nM. With `Nc1nc(-c2nn(Cc3ccccc3F)c3ncccc23)ncc1N1CCSC1=O` [Example 16] the figure was 1230 nM; with `CC12CC1C(=O)N(c1cnc(-c3nn(Cc4ccccc4F)c4ncccc34)nc1N)C2=O` (centres unmarked) [Example 19], 410 nM. With `CC(=O)Nc1nc(-c2nn(Cc3ccccc3F)c3ncccc23)ncc1N1CCOC1=O` [Example 21, N-[2-[1-(2-Fluorebenzyl)-1H-pyrazolo[34-b]pyridin-3-yl]-5-(2-oxo-1,3-oxazolidin-3-yl)-4-pyrimidinyl]acetamide] the figure was 250 nM; with `Nc1nc(-c2nn(Cc3ccccc3F)c3ncccc23)ncc1N1C(=O)c2ccccc2C1=O` [Example 22, 2-{4-Amino-2-[1-(2-fluorobenzyl)-1H-pyrazolo[3,4-b]pyridin-3-yl]-5-pyrimidinyl}-1H-isoindole-1,3(2H)-dione], 600 nM.
